Experimental data published in US9115117B2, “Substituted piperidine compounds and their use as orexin receptor modulators” (JANSSEN PHARMACEUTICA NV, priority 2013, dated 2015).
pKi: −log10 of the molar value. Structures can show the parent of a compound that is named as a salt.

Experiments:
rat orexin 1 receptor = rat orexin 1 receptor (Rattus norvegicus, UniProt P56718); test: Rat orexin 1 receptor radioligand binding; conditions: HEK293 cells stably expressing rat orexin 1 receptor; apparent Ki; read-out: rOX1 Ki
Experimental: After centrifugation (2K×G, 5 min at 4° C.), the supernatant was aspirated and the pellets frozen and stored at −80° C. […] Each cell pellet from a 15 cm plate was resuspended in 10 mL, stored on ice, and homogenized for 45 sec prior to addition to the reactions. Competition binding experiments in 96 well polypropylene plates were performed using [^3H]-(1-(5-(2-fluoro-phenyl)-2-methyl-thiazol-4-yl)-1-((S)-2-(5-phenyl-(1,3,4)oxadiazol-2-ylmethyl)-pyrrolidin-1-yl)-methanone) (Moraveck Corporation, specific activity=35.3 Ci/mmol), diluted to a 10 nM concentration in PBS (4 nM final). […] The final concentration of DMSO in the reactions is equal to or less than 0.1%. Total and nonspecific binding was determined in the absence and presence of 10 μM almorexant. The total volume of each reaction is 200 μL (20 μL of diluted compounds, 80 μL of [3H]-(1-(5-(2-fluoro-phenyl)-2-methyl-thiazol-4-yl)-1-((S)-2-(5-phenyl-(1,3,4)oxadiazol-2-ylmethyl)-pyrrolidin-1-yl)-methanone) diluted in PBS and 100 μL of the cell suspension). […] The plates were washed 3 times by aspirating 30 ml PBS through the plates. Plates were dried in 55° C. oven for 60 min, scintillation fluid was added, and the radioactivity was counted on a Topcount (Packard).

human orexin 2 receptor = human orexin 2 receptor (Homo sapiens (Human), UniProt O43614); test: Human orexin 2 receptor radioligand binding ([3H]-EMPA); conditions: HEK293 stably expressing human orexin 2 receptor; [3H]-EMPA; apparent Ki; read-out: hOX2 Ki
human orexin 2 receptor, sequence (O43614 whole entry): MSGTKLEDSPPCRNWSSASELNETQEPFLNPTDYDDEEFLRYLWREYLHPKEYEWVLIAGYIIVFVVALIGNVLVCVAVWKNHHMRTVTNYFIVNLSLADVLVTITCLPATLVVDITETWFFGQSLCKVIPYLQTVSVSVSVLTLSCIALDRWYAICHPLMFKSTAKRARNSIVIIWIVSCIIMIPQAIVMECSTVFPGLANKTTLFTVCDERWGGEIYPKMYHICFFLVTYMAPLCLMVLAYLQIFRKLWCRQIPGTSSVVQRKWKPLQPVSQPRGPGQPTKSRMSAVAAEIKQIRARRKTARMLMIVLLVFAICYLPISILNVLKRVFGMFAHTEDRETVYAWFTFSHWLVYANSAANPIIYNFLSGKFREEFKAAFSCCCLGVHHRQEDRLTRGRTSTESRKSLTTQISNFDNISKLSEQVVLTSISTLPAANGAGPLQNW
How it was run: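 Competition binding with 2 nM final [3H]-EMPA in PBS against homogenized whole-cell suspension; DMSO ≤0.1%. Nonspecific binding defined with […] almorexant. Plates washed with PBS, dried, and bound radioactivity counted by scintillation.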

human orexin 1 receptor = human orexin 1 receptor (Homo sapiens, UniProt O43613); test: Human orexin 1 receptor radioligand binding; conditions: CHO cells stably expressing human orexin 1 receptor; apparent Ki; read-out: hOX1 Ki
Experimental: The in vitro affinity of the compounds of the invention for the rat/human orexin 1 and human orexin 2 receptors was determined by competitive radioligand binding using [^3H](1-(5-(2-fluoro-phenyl)-2-methyl-thiazol-4-yl)-1-((S)-2-(5-phenyl-(1,3,4)oxadiazol-2-ylmethyl)-pyrrolidin-1-yl)-methanone)(Langmead et al., 2004) and [^3H]EMPA (n-ethyl-2[96-methoxy-pyridin-3-yl)-(toluene-2-sulfonyl)-amino]-N-pyridin-3-ylmethyl acetamide), respectively (Langmead et al., 2004, British Journal of Pharmacology 141:340-346; Malherbe et al., 2004, British Journal of Pharmacology 156:1326-41).
Human Embryonic Kidney 293 cells (HEK293) stably expressing rat orexin 1 receptor (Genebank accession number NM_001525) or Chinese ovary cells (CHO) stably expressing human orexin 1 receptor (Genebank accession number NM_001526) were grown to confluency in DMEM (Hyclone, cat #SH30022), 10% FBS, 1× Pen/Strep, 1× sodium pyruvate, 10 mM HEPES, 600 µg/mL G418 and DMEM/F12 (Gibco, Cat #11039), 10% FBS, 1× Pen/Strep, 600 µg/mL G418 media, respectively on 150 cm^2 tissue culture plates, washed with 5 mM EDTA in PBS (HyClone Dulbecco's Phoshpate Buffered Saline 1× with Calcium and Magnesium, Cat #SH30264.01, hereafter referred to simply as PBS) and scraped into 50 ml tubes. After centrifugation (2K×G, 5 min at 4° C.), the supernatant was aspirated and the pellets frozen and stored at −80° C. Cells were resuspended in PBS in the presence of 1 tablet of protease inhibitor cocktail (Roche, Cat. #11836145001) per 50 mL. Each cell pellet from a 15 cm plate was resuspended in 10 mL, stored on ice, and homogenized for 45 sec prior to addition to the reactions. Competition binding experiments in 96 well polypropylene plates were performed using [^3H]-(1-(5-(2-fluoro-phenyl)-2-methyl-thiazol-4-yl)-1-((S)-2-(5-phenyl-(1,3,4)oxadiazol-2-ylmethyl)-pyrrolidin-1-yl)-methanone) (Moraveck Corporation, specific activity=35.3 Ci/mmol), diluted to a 10 nM concentration in PBS (4 nM final). […] The final concentration of DMSO in the reactions is equal to or less than 0.1%. Total and nonspecific binding was determined in the absence and presence of 10 μM almorexant. The total volume of each reaction is 200 μL (20 μL of diluted compounds, 80 μL of [3H]-(1-(5-(2-fluoro-phenyl)-2-methyl-thiazol-4-yl)-1-((S)-2-(5-phenyl-(1,3,4)oxadiazol-2-ylmethyl)-pyrrolidin-1-yl)-methanone) diluted in PBS and 100 μL of the cell suspension). Reactions were run for 60 min at room temperature and terminated by filtration through GF/C filter plates (PerkinElmer, Cat. #6005174) presoaked in 0.3% polyethylenimine using the cell harvester (PerkinElmer Filtermate). The plates were washed 3 times by aspirating 30 ml PBS through the plates. Plates were dried in 55° C. oven for 60 min, scintillation fluid was added, and the radioactivity was counted on a Topcount (Packard).

SMILES | pKi (rat orexin 1 receptor) | pKi (human orexin 2 receptor) | pKi (human orexin 1 receptor)
Cc1cnc(C(=O)N2CCC[C@@H](Nc3ccc(Br)cn3)[C@@H]2C)c(-n2nccn2)c1 [Example 92, ((2S,3R)-3-((5-bromopyridin-2-yl)amino)-2-methylpiperidin-1-yl)(5-methyl-3-(2H-1,2,3-triazol-2-yl)pyridin-2-yl)methanone] | 7.72 | 5.38 | 7.74
COc1ccc(-n2nccn2)c(C(=O)N2CCC[C@@H](Nc3ncc(C(F)(F)F)cn3)[C@@H]2C)c1 [Example 89, (5-methoxy-2-(2H-1,2,3-triazol-2-yl)phenyl)((2S,3R)-2-methyl-3-((5-(trifluoromethyl)pyrimidin-2-yl)amino)piperidin-1-yl)methanone] | 7.85 | 6.43 | 8.00
C[C@H]1[C@H](Nc2ccc(C(F)(F)F)nn2)CCCN1C(=O)c1ccccc1-n1nccn1 (racemic) [Example 33, (±)-trans-(2-(2H-1,2,3-triazol-2-yl)phenyl)(2-methyl-3-((6-(trifluoromethyl)pyridazin-3-yl)amino)piperidin-1-yl)methanone hydrochloride] | 6.70 | 5.32 | 6.80
Cc1cnc(C(=O)N2CCC[C@@H](Oc3ncc(C(F)(F)F)cn3)[C@@H]2C)c(-n2nccn2)c1 [Example 101, ((2S,3R)-2-methyl-3-((5-(trifluoromethyl)pyrimidin-2-yl)oxy)piperidin-1-yl)(5-methyl-3-(2H-1,2,3-triazol-2-yl)pyridin-2-yl)methanone] | 6.67 | < 5.00 | 6.35
Cc1ccc(-c2ncco2)c(C(=O)N2CCC[C@@H](Nc3ccc(C(F)(F)F)cn3)[C@@H]2C)n1 (racemic) [Example 22, (±)-trans-(2-methyl-3-((5-(trifluoromethyl)pyridin-2-yl)amino)piperidin-1-yl)(6-methyl-3-(oxazol-2-yl)pyridin-2-yl)methanone hydrochloride] | 7.48 | 6.37 | 7.72
Cc1ccc(C(=O)N2CCC[C@@H](Nc3ncc(C(F)(F)F)cn3)[C@@H]2C)c(-n2ccnn2)n1 [Example 70, (6-methyl-2-(1H-1,2,3-triazol-1-yl)pyridin-3-yl)((2S,3R)-2-methyl-3-((5-(trifluoromethyl)pyrimidin-2-yl)amino)piperidin-1-yl)methanone] | 6.77 | 5.12 | 6.78
Cc1ccc(C(=O)N2CCC[C@@H](Nc3ccc(Cl)cn3)[C@@H]2C)c(-n2nccn2)c1 [Example 99, ((2S,3R)-3-((5-chloropyridin-2-yl)amino)-2-methylpiperidin-1-yl)(4-methyl-2-(2H-1,2,3-triazol-2-yl)phenyl)methanone] | 7.64 | 5.85 | 7.82
COc1ccc(-n2nccn2)c(C(=O)N2CCC[C@@H](Nc3ccc(C(F)(F)F)cn3)[C@@H]2C)c1 (racemic) [Example 19, (±)-trans-(5-methoxy-2-(2H-1,2,3-triazol-2-yl)phenyl)(2-methyl-3-((5-(trifluoromethyl)pyridin-2-yl)amino)piperidin-1-yl)methanone] | 8.00 | 6.62 | 8.00
Cc1cnc(C(=O)N2CCC[C@@H](Nc3nc4ccccc4o3)[C@@H]2C)c(-c2ncco2)c1 [Example 88, ((2S,3R)-3-(benzo[d]oxazol-2-ylamino)-2-methylpiperidin-1-yl)(5-methyl-3-(oxazol-2-yl)pyridin-2-yl)methanone] | 7.89 | 5.48 | 7.60
Cc1ccc(C(=O)N2CCC[C@@H](Nc3ccc(C(F)(F)F)cn3)[C@@H]2C)c(-n2nccn2)c1 (racemic) [Example 13, (±)-trans-(4-methyl-2-(2H-1,2,3-triazol-2-yl)phenyl)(2-methyl-3-((5-(trifluoromethyl)pyridin-2-yl)amino)piperidin-1-yl)methanone] | 7.82 | 6.04 | 8.05

Second part, the molecule after the results:

pKi (rat orexin 1 receptor) | pKi (human orexin 2 receptor) | pKi (human orexin 1 receptor) | SMILES
6.92 | < 5.00 | 6.76 | Cc1ccc(-n2nccn2)c(C(=O)N2CCC[C@@H](Oc3ncc(C(F)(F)F)cn3)[C@@H]2C)n1 [Example 104, ((2S,3R)-2-methyl-3-((5-(trifluoromethyl)pyrimidin-2-yl)oxy)piperidin-1-yl)(6-methyl-3-(2H-1,2,3-triazol-2-yl)pyridin-2-yl)methanone]
7.64 | 6.76 | 7.55 | Cc1ccc(-c2ncccn2)c(C(=O)N2CCC[C@@H](Nc3cnc(C(F)(F)F)cn3)[C@@H]2C)n1 [Example 84, ((2S,3R)-2-methyl-3-((5-(trifluoromethyl)pyrazin-2-yl)amino)piperidin-1-yl)(6-methyl-3-(pyrimidin-2-yl)pyridin-2-yl)methanone]
7.96 | 5.69 | 7.85 | Cc1cnc(C(=O)N2CCC[C@@H](Nc3ccc(C(F)(F)F)cn3)[C@@H]2C)c(-n2nccn2)c1 [Example 26, ((2S,3R)-2-methyl-3-((5-(trifluoromethyl)pyridin-2-yl)amino)piperidin-1-yl)(5-methyl-3-(2H-1,2,3-triazol-2-yl)pyridin-2-yl)methanone]
8.10 | 6.68 | 8.00 | C[C@H]1[C@H](Nc2cnc(C(F)(F)F)cn2)CCCN1C(=O)c1ccccc1-n1nccn1 [Example 85, (2-(2H-1,2,3-triazol-2-yl)phenyl)((2S,3R)-2-methyl-3-((5-(trifluoromethyl)pyrazin-2-yl)amino)piperidin-1-yl)methanone]
7.44 | 5.40 | 7.26 | Cc1cnc(C(=O)N2CCC[C@@H](Nc3ccc(Cl)cn3)[C@@H]2C)c(-c2ncco2)c1 [Example 77, ((2S,3R)-3-((5-chloropyridin-2-yl)amino)-2-methylpiperidin-1-yl)(5-methyl-3-(oxazol-2-yl)pyridin-2-yl)methanone]
7.54 | 5.31 | 7.62 | Cc1cnc(C(=O)N2CCC[C@@H](Nc3ccc(Br)cn3)[C@@H]2C)c(-c2ncco2)c1 [Example 80, ((2S,3R)-3-((5-bromopyridin-2-yl)amino)-2-methylpiperidin-1-yl)(5-methyl-3-(oxazol-2-yl)pyridin-2-yl)methanone]
7.59 | < 5.00 | 7.92 | Cc1ccc(C(=O)N2CCC[C@@H](Nc3ccc(C(F)(F)F)cn3)[C@@H]2C)c(-n2nccn2)n1 [Example 98, (6-methyl-2-(2H-1,2,3-triazol-2-yl)pyridin-3-yl)((2S,3R)-2-methyl-3-((5-(trifluoromethyl)pyridin-2-yl)amino)piperidin-1-yl)methanone]
